“Also recorded” adds a separate entry of the source. Where two headings read alike, the source gives them in different places.
Experiments:
MDA-MB-231 cells [1] = experiment: Migration (wound closure) assay; format: cell-based, human; details: after 48 h of incubation
Procedure: (§1) Migration Assay. The experiment was performed according to the pre-standardized procedure (Rah et al., 2012, PloS one, 7(9). p.e44039). MDA-MB-231 and MCF7 cells were plated in 6-well plates at a concentration of (1×10^6 cells/well) and allowed to form a confluent monolayer for 24 h. On the next day, the monolayer was scratched with a sterile pipette tip (20-200 μl) and washed with serum free medium to remove the detached cells. […] Wounded areas were progressively photographed under an inverted microscope with Nikon D3100 camera at 20× magnification. […]

MCF7 cells [2] = experiment: Migration (wound closure) assay; format: cell-based, human; details: after 48 h of incubation
Procedure: as §1

MDA-MB-231 cells [3] = experiment: Cell scattering assay (bFGF stimulated); format: cell-based, human; details: bFGF plus 200 nM, 48 h, vs bFGF alone
Procedure: (§2) Cell Scattering Assay. The procedure was followed according to the previously described method (Amin et al., 2015, Mol. Carcinog). Briefly, MDA-MB-231 and MCF7 cells were trypsinized, seeded in 6 well plates at a density of 1000 cells/well and incubated for 5 days for the formation of small colonies. On the sixth day, exhausted media was replaced by fresh media and cells were stimulated with bFGF (20 ng/mL) along with 5 (200 nM) or doxorubicin for 48 h. Cells were then washed with PBS and photographs were taken under inverted microscope at 20× magnification.

MCF7 cells [4] = experiment: Cell scattering assay (bFGF stimulated); format: cell-based, human; details: bFGF plus 200 nM, 48 h, vs bFGF alone
Procedure: as §2

TIMP-1 = experiment: Immunoblotting, expression of TIMP-1; format: cell-based, human; details: MDA-MB-231 cells; dose dependent
Procedure: (§3) Immunoblotting. MDA-MB-231 and MCF7 cells (0.5×10^6) were plated in six well plates for overnight in a humidified CO2 incubator and then exposed to varying concentrations of 5 (50, 100 and 200 nM) for 24 h along with vehicle (dose dependent study) and 200 nM of 5 for various time points like; 0, 6, 12, 24 and 48 h (time dependent study). Cells were then harvested, washed with chilled PBS and lysed with lysis buffer (HEPES 1 mM, KCl 60 mM, NP-40 0.3%, EDTA 1 mM, DTT 1 mM, sodium orthovanadate 1 mM, PMSF 0.1 mM and cocktail protease inhibitor). The cell extractions were centrifuged at 12,000 rpm for 10 min at 4° C. Protein concentration was measured by the standard Bradford method. An equal amount (20 μg) of protein from each sample was subjected to SDS-PAGE, and proteins were transferred to PVDF membranes (PALL), blocked with 5% (w/v) non-fat milk in PBS containing 0.1% Tween-20, probed with relevant antibodies (1:1000 dilution) for 3 h at room temperature or overnight at 4° C., and subsequently washed and probed with species-specific secondary antibodies coupled to horseradish peroxidase. Immunoreactive proteins were detected by Enhanced Chemiluminescence Plus (Thermo) (Rah et al., 2012, PloS one, 7(9), p.e44039.).

[5] = tested on: normal breast epithelial (fR2) cells; experiment: Cell viability (MTT) assay, normal cells; format: cell-based, human
Procedure: (§4) Cell Culture and Reagents. The cell lines used in this study were procured from American Type Culture Collection (ATCC), Manassas, USA. MCF7, T47D and fR2 cells were cultured in RPMI-1640 medium, whereas the MDA-MB-231 cells were grown in Leibovitz's (L-15) medium supplemented with 10% fetal bovine serum (Gibco) and 1% penicillin/streptomycin (Sigma) in a humidified CO2 incubator (New Brunswick Galaxy 170 R) with 5% CO2. Reagents such as phenylmethylsulfonyl fluoride (PMSF), dithiothreitol (DTT), DMSO, crystal violet, and Bradford's reagent were purchased from Sigma-Aldrich. Protease inhibitor cocktail was procured from Roche. The antibodies for human GRP78, Par-4, MMP-2, MMP-9, NF-kB, E-cadherin and TIMP-1 were procured from Santa-Cruz Biotechnology. The β-actin antibody and the secondary antibodies such as anti-rabbit IgG and anti-mouse IgG were procured from Sigma-Aldrich.
Cell Viability Assay. The cell viability was determined by standard MTT assay method. […] The amount of coloured formazan derivatives formed was measured by taking optical density (OD) using a microplate reader (TECAN, Infinite M200 Pro) at 570 nm and the percentage cell viability was calculated. The IC50 values were calculated using GraphPad Prism software (Version 5.0). […]

T47D cells = experiment: Cell viability (MTT) assay; format: cell-based; details: Homo sapiens, 44 h + 4 h, mean ± SD of three experiments
Procedure: as §4
(§5) Cell Viability Assay. The cell viability was determined by standard MTT assay method. Briefly, MDA-MB-231, MCF7, T47D and fR2 cells were seeded in 96 well tissue culture plates (Nunc) at a density of 3×10^3 cells per well and treated with varying concentrations of the test compounds in triplicates. DMSO was taken as a vehicle and the final concentration of the DMSO was maintained at 0.2% in the culture medium. Doxorubicin was employed as a positive control. After 44 h of incubation, MTT dye solution was added into the medium and cells were incubated for another 4 h at 37° C. in 5% CO2. The amount of coloured formazan derivatives formed was measured by taking optical density (OD) using a microplate reader (TECAN, Infinite M200 Pro) at 570 nm and the percentage cell viability was calculated. The IC50 values were calculated using GraphPad Prism software (Version 5.0). Table 2. Cytotoxicity (IC50) of all synthesized compounds of invention against panel of human breast cancer cell lines (MDA-MB-231, MCF7, T47D) and normal breast epithelial (fR2) cells.

MDA-MB-231 cells [6] = experiment: Cell viability (MTT) assay; format: cell-based; details: Homo sapiens
Procedure: as §4, §5

MCF7 cells [7] = experiment: Cell viability (MTT) assay; format: cell-based; details: Homo sapiens
Procedure: as §4, §5

MMP-2 = experiment: Immunoblotting, expression of MMP-2; format: cell-based, human; details: MDA-MB-231 cells; dose dependent
Procedure: as §3

GRP78 = experiment: Immunoblotting, expression of GRP78; format: cell-based, human; details: for expression of intracellular GRP78 (time dependent study): 200 nM
Procedure: as §3
Drug Potentiation Assay. Briefly, MDA-MB-231 cells were exposed to 200 nM of compound 5, 200 nM of doxorubicin alone and/or combination of both (1:1 ratio) for 48 h in cell viability (MTT) assay, for 5 days in a colony formation assay and subjected to western blotting for the expression of GRP78 and Par-4. The ability of 5 to enhance cell killing was expressed as potentiation index (PI), which was the ratio of the […]. Thus, PI>1 indicates potentiation and PI<1 indicates protection.

Q: For CCCCCCCC(c1oc(CO)cc(=O)c1O)c1c[nH]c2ccccc12 (stereo not drawn) [Compound 5, 2-{1-(1H-indol-3-yl)octyl}-3-hydroxy-6-(hydroxymethyl)-4H-pyran-4-one], which suppressed migration (MDA-MB-231 cells [1]) is on record?
A: 57.3%

Q: And the suppressed migration (MCF7 cells [2])?
A: 55.4%

Q: And the cell scattering inhibited (MDA-MB-231 cells [3])?
A: 80%

Q: What about the cell scattering inhibited (MCF7 cells [4]) of the same compound?
A: 84.5%

Q: What about the “expression of TIMP-1” value (TIMP-1) of the same compound?
A: induced significantly

Q: What about the IC50 ([5]; Homo sapiens, FR2, MTT, 44 h + 4 h, mean ± SD of three experiments) of the same compound?
A: 74 µM

Q: And the “toxicity towards normal breast epithelial (fR2) cells” value ([5]; in words)?
A: non-toxic; also recorded: less/non-toxic

Q: What about the IC50 (T47D cells) of the same compound?
A: 3.45 µM

Q: What about the IC50 (T47D cells; 48 h) of the same compound?
A: 3.45 µM

Q: And the IC50 (MDA-MB-231 cells [6]; MDA-MB-231, 44 h + 4 h, mean ± SD of three experiments, read-out: IC50 values MDA-MB-231)?
A: 209 ± 265 nM

Q: And the IC50 (MDA-MB-231 cells [6]; MDA-MB-231, read-out: IC50 in MDA-MB-231)?
A: 209 nM

Q: What about the IC50 (MCF7 cells [7]; MCF7, 44 h + 4 h, mean ± SD of three experiments, read-out: IC50 values MCF7) of the same compound?
A: 150 ± 95 nM

Q: And the IC50 (MCF7 cells [7]; MCF7, read-out: IC50 in MCF7)?
A: 150 nM

Q: And the “expression of MMP-2” value (MMP-2)?
A: downregulated

Q: And the “expression of intracellular GRP78 (time dependent study)” value (GRP78; 24 h time point)?
A: consistent decrease

Q: And the “expression of intracellular GRP78 (time dependent study)” value (GRP78; 48 h time period)?
A: almost vanished

Q: And the “expression of GRP78 (dose dependent study)” value (GRP78; 100 and 200 nM, 24 h, MDA-MB-231 and MCF7 vs vehicle)?
A: steady downregulation

Q: And the “decrease in the expression of GRP78” value (GRP78; MDA-MB-231, 5 and doxorubicin in combination, 24 h, vs each alone, densitometry)?
A: 5.1 fold

Reference: patent US11180486B2, “Indolylkojyl methane analogues, process of preparation thereof and use as inhibitor of cancer cells invasion and metastasis” (Council of Scientific & Industrial Research, priority 2017, dated 2021)
